Tests used:
adult houseflies = experiment: Test Example 2: housefly knock down, spray in cubic glass chamber; type: in vivo; settings: active ingredient concentration 0.00625%, 0.7 ml sprayed, counted 10 minutes after spraying, repeated twice
Protocol: The formulation of the sample compound obtained in Formulation Example 7 was diluted with dichloromethane/deodorized kerosene=1/9 mixed solution so that the active ingredient concentration was 0.00625%, to prepare a test solution.
Ten adult houseflies (4 or 5 males and 4 or 5 females each) were left in a cubic glass chamber (70 cm at each side), and 0.7 ml of the test solution was sprayed through a small window at the side of the chamber using a spray gun at a spraying pressure of 0.9 kg/cm^2. 10 minutes after spraying, the number of knocked-down insects was counted (repeated twice).

[1] = tested on: German cockroach (Blattella germanica); experiment: Test Example 3: German cockroach knock down, spray in test chamber; type: in vivo; settings: active ingredient concentration 0.00625%, 1.5 ml sprayed, counted 1 minutes after spraying, repeated twice
Protocol: The formulation of the sample compound obtained in Formulation Example 7 was diluted with dichloromethane/deodorized kerosene=1/9 mixed solution so that the active ingredient concentration was 0.00625%, to prepare a test medicinal solution.
A container (8.75 cm in diameter, 7.5 cm in height, bottom covered 16-mesh iron net and inside wall painted butter for preventing tested pill bugs to escape) having 10 German cockroach (5 males and 5 females, Blattella germanica) therein was set on the bottom of a test chamber (46 cm×46 cm, height: 70 cm). From a height of 60 cm above the upper surface of the container, 1.5 ml of the test solution was sprayed using a spray gun at a spraying pressure of 0.4 kg/cm^2. After 30 seconds, the German cockroach were taken out and put into a clean plastic cup having 8.2 cm in diameter. The lid having holes was covered on the cup. 1 minutes after spraying, the number of knocked-down insects was counted (repeated twice).

C#CCN1CC(=O)N(COC(=O)[C@@H]2[C@@H](C=C(C)C)C2(C)C)C1=O [comparative compound (A), 2,5-dioxo-3-(2-propynyl)imidazolidine-1-ylmethyl (1R)-trans-2,2-dimethyl-3-(2-methyl-1-propenyl)cyclopropane carboxylate]
knock down ratio of sample insects (adult houseflies): 42%

C#CCc1ccc(COC(=O)[C@@H]2[C@@H](/C=C(\C)C=NOC)C2(C)C)o1 [comparative compound (B), 5-(2-propynyl)furan-2-ylmethyl (1R)-trans-3-[(E)-3-methoxyimino-2-methyl-1-propenyl]-2,2-dimethylcyclopropanecarboxylate]
knock down ratio of sample insects [1]: 0%

C#CCN1CC(=O)N(COC(=O)[C@@H]2[C@@H](/C=C(\C)C=NOC)C2(C)C)C1=O [present compound (1), 2,5-dioxo-3-(2-propynyl)imidazolidin-1-ylmethyl (1R)-trans-3-[(E)-3-methoxyimino-2-methyl-1-propenyl]-2,2-dimethylcyclopropanecarboxylate]
knock down ratio of sample insects [1]: 100%
knock down ratio of sample insects (adult houseflies): 100%

Source: patent publication US8039499B2, “Ester compound and its use” (Sumitomo Chemical Company, Limited, priority 2006, dated 2011)
